In patent US20170326125A1, “MULTISUBSTITUTED AROMATIC COMPOUNDS AS INHIBITORS OF THROMBIN” (VERSEON CORPORATION, priority 2016, published 2017) one finds IC50 data, which are given here for 40 molecules.

For one assay, the target named is T1, Human thrombin (Homo sapiens, UniProt P00734).
T1 construct: purchased Haematologic Technologies Inc
As to the kind of experiment: Inhibition of the protease activity of thrombin (chromogenic substrate S-2238). Type of assay: biochemical. The following applies: Table C; 3 nM thrombin, 125 μM S-2238, 10 min pre-incubation, RT.
Regarding `COc1ccccc1CNc1nc(-c2cccnc2)nn1C(=O)C(C)C` [Cmpd 305, 1-(5-[(2-methoxyphenyl)methyl]amino-3-(pyridin-3-yl)-1H-1,2,4-triazol-1-yl)-2-methylpropan-1-one], the IC50 was above 1000 nM.
The same measure, in the same setting: next, `CC(C)C(=O)n1nc(-c2cccnc2)nc1NCc1ccc(Cl)cc1` [Cmpd 306, 1-(5-[(4-chlorophenyl)methyl]amino-3-(pyridin-3-yl)-1H-1,2,4-triazol-1-yl)-2-methylpropan-1-one]: below 100 nM.
Same read-out and setting: next, `CC(=O)n1nc(-c2cccnc2)nc1NCc1ccc(Cl)cc1` [Cmpd 307, 1-(5-[(4-chlorophenyl)methyl]amino-3-(pyridin-3-yl)-1H-1,2,4-triazol-1-yl)ethan-1-one]: below 100 nM; `CCC(=O)n1nc(-c2cccnc2)nc1NCc1ccc(Cl)cc1` [Cmpd 308, 1-(5-[(4-chlorophenyl)methyl]amino-3-(pyridin-3-yl)-1H-1,2,4-triazol-1-yl)propan-1-one]: below 100 nM; `CC(C)(C)C(=O)n1nc(-c2ccco2)nc1NCc1ccc(F)cc1` [Cmpd 309, 1-(5-[(4-fluorophenyl)methyl]amino-3-(furan-2-yl)-1H-1,2,4-triazol-1-yl)-2,2-dimethylpropan-1-one]: below 100 nM.
On the same count and under the same terms, next, `CC(C)C(=O)n1nc(-c2ccco2)nc1NCc1ccc(F)cc1` [Cmpd 310, 1-(5-[(4-fluorophenyl)methyl]amino-3-(furan-2-yl)-1H-1,2,4-triazol-1-yl)-2-methylpropan-1-one]: below 100 nM; `COCC(=O)n1nc(-c2cccnc2)nc1NCc1ccc(F)cc1` [Cmpd 311, 1-(5-[(4-fluorophenyl)methyl]amino-3-(pyridin-3-yl)-1H-1,2,4-triazol-1-yl)-2-methoxyethan-1-one]: above 1000 nM; `CC(C)C(=O)n1nc(-c2cccnc2)nc1NCc1ccc(F)cc1` [Cmpd 312, 1-(5-[(4-fluorophenyl)methyl]amino-3-(pyridin-3-yl)-1H-1,2,4-triazol-1-yl)-2-methylpropan-1-one]: below 100 nM.
`O=C(Cc1ccccc1)n1nc(-c2cccnc2)nc1NCc1ccc(F)cc1` [Cmpd 313, 1-(5-[(4-fluorophenyl)methyl]amino-3-(pyridin-3-yl)-1H-1,2,4-triazol-1-yl)-2-phenylethan-1-one] gave an IC50 below 100 nM.
The molecule `CC(C)CC(=O)n1nc(-c2cccnc2)nc1NCc1ccc(F)cc1` [Cmpd 314, 1-(5-[(4-fluorophenyl)methyl]amino-3-(pyridin-3-yl)-1H-1,2,4-triazol-1-yl)-3-methylbutan-1-one] had an IC50 below 100 nM.
Turning to `O=C(CCc1ccccc1)n1nc(-c2cccnc2)nc1NCc1ccc(F)cc1` [Cmpd 315, 1-(5-[(4-fluorophenyl)methyl]amino-3-(pyridin-3-yl)-1H-1,2,4-triazol-1-yl)-3-phenylpropan-1-one], the IC50 was below 100 nM.
On the same count and under the same terms, the value for `CCCC(=O)n1nc(-c2cccnc2)nc1NCc1ccc(F)cc1` [Cmpd 316, 1-(5-[(4-fluorophenyl)methyl]amino-3-(pyridin-3-yl)-1H-1,2,4-triazol-1-yl)butan-1-one] was below 100 nM; that for `CC(=O)n1nc(-c2cccnc2)nc1NCc1ccc(F)cc1` [Cmpd 317, 1-(5-[(4-fluorophenyl)methyl]amino-3-(pyridin-3-yl)-1H-1,2,4-triazol-1-yl)ethan-1-one] was below 100 nM; that for `COc1ccc(CNc2nc(-c3cccnc3)nn2C(=O)C(C)C)cc1` [Cmpd 318, 1-(5-[(4-methoxyphenyl)methyl]amino-3-(pyridin-3-yl)-1H-1,2,4-triazol-1-yl)-2-methylpropan-1-one] was below 100 nM.
The molecule `COc1ccc(CNc2nc(-c3cccnc3)nn2C(=O)Cc2ccccc2)cc1` [Cmpd 319, 1-(5-[(4-methoxyphenyl)methyl]amino-3-(pyridin-3-yl)-1H-1,2,4-triazol-1-yl)-2-phenylethan-1-one] showed an IC50 below 100 nM.
Same read-out and setting: the value for `COc1ccc(CNc2nc(-c3cccnc3)nn2C(=O)CC(C)C)cc1` [Cmpd 320, 1-(5-[(4-methoxyphenyl)methyl]amino-3-(pyridin-3-yl)-1H-1,2,4-triazol-1-yl)-3-methylbutan-1-one] was below 100 nM; that for `COc1ccc(CNc2nc(-c3cccnc3)nn2C(=O)CCc2ccccc2)cc1` [Cmpd 321, 1-(5-[(4-methoxyphenyl)methyl]amino-3-(pyridin-3-yl)-1H-1,2,4-triazol-1-yl)-3-phenylpropan-1-one] was 100 to 1000 nM; that for `CCCC(=O)n1nc(-c2cccnc2)nc1NCc1ccc(OC)cc1` [Cmpd 322, 1-(5-[(4-methoxyphenyl)methyl]amino-3-(pyridin-3-yl)-1H-1,2,4-triazol-1-yl)butan-1-one] was below 100 nM.
As for `COc1ccc(CNc2nc(-c3cccnc3)nn2C(C)=O)cc1` [Cmpd 323, 1-(5-[(4-methoxyphenyl)methyl]amino-3-(pyridin-3-yl)-1H-1,2,4-triazol-1-yl)ethan-1-one], the IC50 is 100 to 1000 nM.
On the same count and under the same terms, the value for `CCC(=O)n1nc(-c2cccnc2)nc1NCc1ccc(OC)cc1` [Cmpd 324, 1-(5-[(4-methoxyphenyl)methyl]amino-3-(pyridin-3-yl)-1H-1,2,4-triazol-1-yl)propan-1-one] was 100 to 1000 nM; that for `CC(=O)n1nc(-c2cccnc2)nc1NCc1ccc(C)cc1` [Cmpd 325, 1-(5-[(4-methylphenyl)methyl]amino-3-(pyridin-3-yl)-1H-1,2,4-triazol-1-yl)ethan-1-one] was below 100 nM.
`Nc1nc(-c2cccnc2)nn1S(=O)(=O)c1ccccc1` [Cmpd 326, 1-(benzenesulfonyl)-3-(pyridin-3-yl)-1H-1,2,4-triazol-5-amine] yielded an IC50 above 1000 nM.
The same measure, in the same setting: the value for `O=S(=O)(c1ccccc1)n1nc(-c2cccnc2)nc1NCc1cccs1` [Cmpd 327, 1-(benzenesulfonyl)-3-(pyridin-3-yl)-N-(thiophen-2-ylmethyl)-1H-1,2,4-triazol-5-amine] was above 1000 nM.
Still for that read-out and setting: next, `Nc1nc(C(=O)N2CCOCC2)nn1S(=O)(=O)c1ccccc1` [Cmpd 328, 1-(benzenesulfonyl)-3-[(morpholin-4-yl)carbonyl]-1H-1,2,4-triazol-5-amine]: above 1000 nM; `CCS(=O)(=O)n1nc(C(=O)N2CCOCC2)nc1N` [Cmpd 329, 1-(ethanesulfonyl)-3-[(morpholin-4-yl)carbonyl]-1H-1,2,4-triazol-5-amine]: above 1000 nM.
On the same count and under the same terms, the value for `CSc1nc(-c2ccco2)nn1C(=O)c1ccccc1Cl` [Cmpd 330, 1-[(2-chlorophenyl)carbonyl]-3-(furan-2-yl)-5-(methylsulfanyl)-1H-1,2,4-triazole] was below 100 nM; that for `O=C(c1ccccc1Cl)n1nc(-c2ccco2)nc1NCc1ccc(F)cc1` [Cmpd 331, 1-[(2-chlorophenyl)carbonyl]-N-[(4-fluorophenyl)methyl]-3-(furan-2-yl)-1H-1,2,4-triazol-5-amine] was below 100 nM.
For the molecule `O=C(c1ccccc1Cl)n1nc(-c2cccnc2)nc1NCc1ccc(F)cc1` [Cmpd 332, 1-[(2-chlorophenyl)carbonyl]-N-[(4-fluorophenyl)methyl]-3-(pyridin-3-yl)-1H-1,2,4-triazol-5-amine], the 50% inhibitory concentration (IC50) is below 100 nM.
On the same count and under the same terms, next, `COc1ccccc1C(=O)n1nc(-c2ccccc2)nc1N` [Cmpd 334, 1-[(2-methoxyphenyl)carbonyl]-3-phenyl-1H-1,2,4-triazol-5-amine]: above 1000 nM; `O=S(=O)(c1ccc(Cl)cc1)n1nc(-c2cccnc2)nc1NCc1cccs1` [Cmpd 336, 1-[(4-chlorobenzene)sulfonyl]-3-(pyridin-3-yl)-N-(thiophen-2-ylmethyl)-1H-1,2,4-triazol-5-amine]: above 1000 nM; `Nc1nc(C(=O)N2CCOCC2)nn1S(=O)(=O)c1ccc(Cl)cc1` [Cmpd 337, 1-[(4-chlorobenzene)sulfonyl]-3-[(morpholin-4-yl)carbonyl]-1H-1,2,4-triazol-5-amine]: above 1000 nM.
The same measure, in the same setting: the value for `O=C(c1ccc(Cl)cc1)n1nc(-c2cccnc2)nc1NCc1ccc(F)cc1` [Cmpd 338, 1-[(4-chlorophenyl)carbonyl]-N-[(4-fluorophenyl)methyl]-3-(pyridin-3-yl)-1H-1,2,4-triazol-5-amine] was below 100 nM.
Same read-out and setting: next, `Cc1ccc(C(=O)n2nc(-c3cccnc3)nc2N)cc1` [Cmpd 339, 1-[(4-methylphenyl)carbonyl]-3-(pyridin-3-yl)-1H-1,2,4-triazol-5-amine]: 100 to 1000 nM.
For `COc1ccc(CNc2nc(-c3cccnc3)nn2C(=O)c2ccco2)cc1` [Cmpd 340, 1-[(furan-2-yl)carbonyl]-N-[(4-methoxyphenyl)methyl]-3-(pyridin-3-yl)-1H-1,2,4-triazol-5-amine], the IC50 fell in the range of 100 to 1000 nM.
As to `CCC(=O)n1nc(-c2ccco2)nc1SC` [Cmpd 341, 1-[3-(furan-2-yl)-5-(methylsulfanyl)-1H-1,2,4-triazol-1-yl]propan-1-one], the IC50 is above 1000 nM.
Same read-out and setting: the value for `CCCC(=O)n1nc(-c2cccnc2)nc1NCc1cccs1` [Cmpd 342, 1-[3-(pyridin-3-yl)-5-[(thiophen-2-ylmethyl)amino]-1H-1,2,4-triazol-1-yl]butan-1-one] was below 100 nM.
Still for that read-out and setting: next, `CC(=O)n1nc(-c2cccnc2)nc1NCc1cccs1` [Cmpd 343, 1-[3-(pyridin-3-yl)-5-[(thiophen-2-ylmethyl)amino]-1H-1,2,4-triazol-1-yl]ethan-1-one]: below 100 nM.
Same read-out and setting: the value for `CCC(=O)n1nc(-c2ccc(F)cc2)nc1NCc1ccccc1` [Cmpd 345, 1-[5-(benzylamino)-3-(4-fluorophenyl)-1H-1,2,4-triazol-1-yl]propan-1-one] was above 1000 nM.

The same assay, now with this note: inhibition of the protease activity of thrombin.
Molecule `COc1ccccc1C(=O)c1cn(-c2ccccc2)nc1N(Cc1ccc(F)cc1)C(=O)OC(C)(C)C` [Cmpd 303, tert-butyl N-[(4-fluorophenyl)methyl]-N-4-[(2-methoxyphenyl)carbonyl]-1-phenyl-1H-pyrazol-3-ylcarbamate] showed an IC50 above 1000 nM.
Still for that read-out and setting: next, `COc1ccccc1C(O)c1cc(-c2ccccn2)nn1CCc1ccc(F)cc1` (stereo not shown) [Cmpd 304, 1-[2-(4-fluorophenyl)ethyl]-3-(pyridin-2-yl)-1H-pyrazol-5-yl(2-methoxyphenyl)methanol]: above 1000 nM.
